Laboratory results as given in PubChem BioAssay AID1963445 (Molecular Pharmacology Branch, DTP, NCI, 2024).
“And” between values parts separate entries of the source, which are not always exact repeats. Equal entries are not always repeated.

Test system: MCF7 complex spheroid growth, % test/control
Assay: Anticancer human tumor MCF7 cell line growth inhibition [Asc];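 also: spheroids exposed to compounds for 7 days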;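 as to viability, T/C: 100% = DMSO vehicle control wells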
Settings: for viability, T/C: stronger effect = lower value
Procedure, shortened: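 Complex solid-tumor spheroids incorporating human endothelial and mesenchymal stem cells received single agents or combinations over half-log dilution ranges anchored to clinical Cmax.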

[1] = curve of first compound, second compound 0.0316 µM
[2] = curve of first compound, second compound 0.1 µM
[3] = curve of first compound, second compound 0.316 µM
[4] = curve of first compound, second compound 1 µM

In the case of CCN1C(C(=O)NC23CCC(C(=O)O)(CC2)CC3)C(c2cccc(Cl)c2F)C2(C(=O)Nc3cc(Cl)ccc32)C12CCCCC2 (stereo unspecified) + Cc1c(S(C)(=O)=O)c(-c2cc(F)cc(N3CCN(c4ccc(NS(=O)(=O)c5ccc(NC(CCN6CCC(C(=O)OCCCP(=O)(O)O)CC6)CSc6ccccc6)c(S(=O)(=O)C(F)(F)F)c5)cc4)CC3)c2)c(-c2ccc(Cl)cc2)n1C(C)C, the IC50 [1] is reported as 134 nM, the IC50 [2] is reported as 110 nM and the IC50 [3] is reported as 90 nM. The IC50 [4] was 82 nM, the IC50 (curve of first compound, second compound 3.16 µM) was 60.3 nM and the IC50 (curve of first compound, second compound 10 µM) was 73.5 nM. The viability, T/C (second compound 0.0316 µM, first compound 0.00949 µM) was 96.9%, the viability, T/C (second compound 0.0316 µM, first compound 0.03 µM) was 97.5% and the viability, T/C (second compound 0.0316 µM, first compound 0.0949 µM) was 48.9%. It also gave a viability, T/C (second compound 0.0316 µM, first compound 0.3 µM) of 38.3%, a viability, T/C (second compound 0.0316 µM, first compound 0.949 µM) of 22.7% and a viability, T/C (second compound 0.0316 µM, first compound 3 µM) of 12.1%. It also gave a viability, T/C (second compound 0.1 µM, first compound 0.00949 µM) of 108%, a viability, T/C (second compound 0.1 µM, first compound 0.03 µM) of 93.7% and a viability, T/C (second compound 0.1 µM, first compound 0.0949 µM) of 46%. It also gave a viability, T/C (second compound 0.1 µM, first compound 0.3 µM) of 34.5%, a viability, T/C (second compound 0.1 µM, first compound 0.949 µM) of 15.2% and a viability, T/C (second compound 0.1 µM, first compound 3 µM) of 11.4%. For the same compound, the viability, T/C (second compound 0.316 µM, first compound 0.00949 µM) was 95.2%, the viability, T/C (second compound 0.316 µM, first compound 0.03 µM) was 79.6% and the viability, T/C (second compound 0.316 µM, first compound 0.0949 µM) was 45%. For the same compound, the viability, T/C (second compound 0.316 µM, first compound 0.3 µM) was 28.9%, the viability, T/C (second compound 0.316 µM, first compound 0.949 µM) was 15% and the viability, T/C (second compound 0.316 µM, first compound 3 µM) was 9.79%. It also gave a viability, T/C (second compound 1 µM, first compound 0.00949 µM) of 91.9%, a viability, T/C (second compound 1 µM, first compound 0.03 µM) of 74.4% and a viability, T/C (second compound 1 µM, first compound 0.0949 µM) of 42.5%. For the same compound, the viability, T/C (second compound 1 µM, first compound 0.3 µM) was 33.4%, the viability, T/C (second compound 1 µM, first compound 0.949 µM) was 11.6% and the viability, T/C (second compound 1 µM, first compound 3 µM) was 14.9%. For the same compound, the viability, T/C (second compound 3.16 µM, first compound 0.00949 µM) was 97.9%, the viability, T/C (second compound 3.16 µM, first compound 0.03 µM) was 63.8% and the viability, T/C (second compound 3.16 µM, first compound 0.0949 µM) was 44.2%. It also gave a viability, T/C (second compound 3.16 µM, first compound 0.3 µM) of 18.8%, a viability, T/C (second compound 3.16 µM, first compound 0.949 µM) of 12.1% and a viability, T/C (second compound 3.16 µM, first compound 3 µM) of 11.5%. For the same compound, the viability, T/C (second compound 10 µM, first compound 0.00949 µM) was 188%, the viability, T/C (second compound 10 µM, first compound 0.03 µM) was 153% and the viability, T/C (second compound 10 µM, first compound 0.0949 µM) was 30.6%. It also gave a viability, T/C (second compound 10 µM, first compound 0.3 µM) of 27.4%, a viability, T/C (second compound 10 µM, first compound 0.949 µM) of 12.2% and a viability, T/C (second compound 10 µM, first compound 3 µM) of 12.3%.
In the case of C#Cc1c(F)ccc2cc(O)cc(-c3ncc4c(N5CC6CCC(C5)N6)nc(OCC56CCCN5CC(F)C6)nc4c3F)c12 (stereo unspecified), the viability, T/C (compound 0.0316 µM) is reported as 97% and 87.3% and 92.6%, the viability, T/C (compound 0.1 µM) is reported as 102% and 115% and 97.1% and the viability, T/C (compound 0.316 µM) is reported as 94.8% and 96.2% and 101%. For the same compound, the viability, T/C (compound 1 µM) was 103% and 97.7% and 108%, the viability, T/C (compound 3.16 µM) was 90.2% and 99% and 101% and the viability, T/C (compound 10 µM) was 87.2% and 87.3% and 87.7%. For the same compound, the IC50 (curve of compound) was over 10000 nM.
O=C(c1cc(Cc2n[nH]c(=O)c3ccccc23)ccc1F)N1CCN(C(=O)C2CC2)CC1 + CNC(C)C(=O)NC1CN(S(=O)(=O)c2cccc(S(=O)(=O)N3CCC4CCC(C(=O)NC(c5ccccc5)c5ccccc5)N4C(=O)C(NC(=O)C(C)NC)C3)c2)CCC2CCC(C(=O)NC(c3ccccc3)c3ccccc3)N2C1=O showed an IC50 (curve of first compound, second compound 0.00316 µM) of under 31.6 nM, an IC50 (curve of first compound, second compound 0.01 µM) of under 31.6 nM and an IC50 [1] of under 31.6 nM. The IC50 [2] was under 31.6 nM, the IC50 [3] was under 31.6 nM and the IC50 [4] was under 31.6 nM. For the same compound, the viability, T/C (second compound 0.00316 µM, first compound 0.0316 µM) was 10.6%, the viability, T/C (second compound 0.00316 µM, first compound 0.1 µM) was 15.2% and the viability, T/C (second compound 0.00316 µM, first compound 0.316 µM) was 8.86%. The viability, T/C (second compound 0.00316 µM, first compound 1 µM) was 10.7%, the viability, T/C (second compound 0.00316 µM, first compound 3.16 µM) was 10.2% and the viability, T/C (second compound 0.00316 µM, first compound 10 µM) was 11.4%. For the same compound, the viability, T/C (second compound 0.01 µM, first compound 0.0316 µM) was 16.2%, the viability, T/C (second compound 0.01 µM, first compound 0.1 µM) was 14.4% and the viability, T/C (second compound 0.01 µM, first compound 0.316 µM) was 14.5%. For the same compound, the viability, T/C (second compound 0.01 µM, first compound 1 µM) was 15.3%, the viability, T/C (second compound 0.01 µM, first compound 3.16 µM) was 16.9% and the viability, T/C (second compound 0.01 µM, first compound 10 µM) was 14%. It also gave a viability, T/C (second compound 0.0316 µM, first compound 0.0316 µM) of 13.8%, a viability, T/C (second compound 0.0316 µM, first compound 0.1 µM) of 12% and a viability, T/C (second compound 0.0316 µM, first compound 0.316 µM) of 11.5%. It also gave a viability, T/C (second compound 0.0316 µM, first compound 1 µM) of 13.1%, a viability, T/C (second compound 0.0316 µM, first compound 3.16 µM) of 11.4% and a viability, T/C (second compound 0.0316 µM, first compound 10 µM) of 12.3%. The viability, T/C (second compound 0.1 µM, first compound 0.0316 µM) was 13%, the viability, T/C (second compound 0.1 µM, first compound 0.1 µM) was 13.8% and the viability, T/C (second compound 0.1 µM, first compound 0.316 µM) was 11.8%. For the same compound, the viability, T/C (second compound 0.1 µM, first compound 1 µM) was 13.8%, the viability, T/C (second compound 0.1 µM, first compound 3.16 µM) was 12.1% and the viability, T/C (second compound 0.1 µM, first compound 10 µM) was 11.4%. For the same compound, the viability, T/C (second compound 0.316 µM, first compound 0.0316 µM) was 14.7%, the viability, T/C (second compound 0.316 µM, first compound 0.1 µM) was 12.3% and the viability, T/C (second compound 0.316 µM, first compound 0.316 µM) was 11.8%. It also gave a viability, T/C (second compound 0.316 µM, first compound 1 µM) of 12.3%, a viability, T/C (second compound 0.316 µM, first compound 3.16 µM) of 11.3% and a viability, T/C (second compound 0.316 µM, first compound 10 µM) of 13.5%. It also gave a viability, T/C (second compound 1 µM, first compound 0.0316 µM) of 11.1%, a viability, T/C (second compound 1 µM, first compound 0.1 µM) of 10.9% and a viability, T/C (second compound 1 µM, first compound 0.316 µM) of 13.7%. It also gave a viability, T/C (second compound 1 µM, first compound 1 µM) of 10.9%, a viability, T/C (second compound 1 µM, first compound 3.16 µM) of 11.9% and a viability, T/C (second compound 1 µM, first compound 10 µM) of 14.3%.
